Laboratory results taken from patent US9944666B2, “Compounds that are S1P modulating agents and/or ATX modulating agents” (BIOGEN MA INC., priority 2012, dated 2018).

Molecular target: T1, Human ATX protein (Homo sapiens, UniProt Q13822)
T1 construct: made in house
Assay: ATX biochemical FRET assay with FS-3 substrate
Conditions: FS-3 2 μM, ATX 1.0 μg/mL, room temperature 2 hours, fluorescence 485/538 nm
Procedure, shortened: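 Purified human ATX (1.0 μg/mL final) preincubated with compound 30 min at room temperature in Tris pH 7.4 buffer with NaCl, KCl, CaCl2, MgCl2 and 1 mg/mL fatty acid-free BSA. FS-3 added to 2 μM final; 2 h at room temperature in the dark, fluorescence at ex 485/em 538 nm.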

| SMILES | IC50 |
| --- | --- |
| C[C@H]1CC[C@@H](Oc2ccc3cc(CN4C5CCCC4CC(C(=O)O)C5)ccc3c2C(F)(F)F)CC1 (stereo partly drawn) [Example 97, 9-((6-((cis-4-Methylcyclohexyl)oxy)-5-(trifluoromethyl)naphthalen-2-yl)methyl)-9-azabicyclo[3.3.1]nonane-3-carboxylic acid] | ≤ 100 nM |
| CCC(c1ccc2c(C(F)F)c(O[C@H]3CC[C@@H](C)CC3)ccc2c1)N1C2CCC1CC(C(=O)O)C2 (stereo partly drawn) [Example 99, 8-(1-(5-(difluoromethyl)-6-((cis-4-methylcyclohexyl)oxy)naphthalen-2-yl)propyl)-8-azabicyclo[3.2.1]octane-3-carboxylic acid] | ≤ 100 nM |
| O=C(O)C1CC2CCCC(C1)N2Cc1ccc2c(C(F)F)c(O[C@H]3CC[C@@H](C(F)(F)F)CC3)ccc2c1 (stereo partly drawn) [Example 100, 9-((5-(difluoromethyl)-6-((cis-4-(trifluoromethyl)cyclohexyl)oxy)naphthalene-2-yl)methyl)-9-azabicyclo[3.3.1]nonane-3-carboxylic acid] | ≤ 100 nM |
| O=C(O)C1CC2CCCC(C1)N2Cc1ccc2c(C(F)(F)F)c(O[C@H]3CC[C@@H](C(F)(F)F)CC3)ccc2n1 (stereo partly drawn) [Example 101, 9-((5-(trifluoromethyl)-6-((cis-4-(trifluoromethyl)cyclohexyl)oxy)quinolin-2-yl)methyl)-9-azabicyclo[3.3.1]nonane-3-carboxylic acid] | ≤ 100 nM |
| CC(c1ccc2c(C(F)(F)F)c(O[C@H]3CC[C@@H](C(F)(F)F)CC3)ccc2n1)N1C2CCC1CC(C(=O)O)C2 (stereo partly drawn) [Example 102, 8-(1-(5-(trifluoromethyl)-6-((cis-4-(trifluoromethyl)cyclohexyl)oxy)quinolin-2-yl)ethyl)-8-azabicyclo[3.2.1]octane-3-carboxylic acid] | ≤ 100 nM |
| C[C@H]1CC[C@@H](Oc2ccc3cc(C(=O)N4C5CCC4CC(C(=O)O)C5)ccc3c2C(F)(F)F)CC1 (stereo partly drawn) [Example 104, 8-(6-((cis-4-Methylcyclohexyl)oxy)-5-(trifluoromethyl)-2-naphthoyl)-8-azabicyclo[3.2.1]octane-3-carboxylic acid] | ≤ 100 nM |
| O=C(O)C1CC2CCCC(C1)N2C(=O)c1ccc2c(C(F)(F)F)c(O[C@H]3CC[C@@H](C(F)(F)F)CC3)ccc2c1 (stereo partly drawn) [Example 105, 9-(5-(trifluoromethyl)-6-((cis-4-(trifluoromethyl)cyclohexyl)oxy)-2-naphthoyl)-9-azabicyclo[3.3.1]nonane-3-carboxylic acid] | ≤ 100 nM |
| O=C(O)C1CC2CCCC(C1)N2C(=O)Cc1ccc2c(C(F)(F)F)c(O[C@H]3CC[C@@H](C(F)(F)F)CC3)ccc2c1 (stereo partly drawn) [Example 106, 9-(2-(5-(trifluoromethyl)-6-((cis-4-(trifluoromethyl)cyclohexyl)oxy)naphthalene-2-yl)acetyl)-9-azabicyclo[3.3.1]nonane-3-carboxylic acid] | ≤ 500 nM |
| C[C@H]1CC[C@@H](Oc2ccc3cc(C(C(=O)O)N4C5CCCC4CCC5)ccc3c2C(F)(F)F)CC1 (stereo partly drawn) [Example 109, 2-(9-Azabicyclo[3.3.1]nonan-9-yl)-2-(6-((cis-4-methylcyclohexyl)oxy)-5-(trifluoromethyl)naphthalen-2-yl)acetic acid] | ≤ 250 nM |
| CC[C@H]1CC[C@@H](Oc2ccc3cc(CN4C5CCCC4CC(C(=O)O)C5)ccc3c2Cl)CC1 (stereo partly drawn) [Example 110, 9-((5-Chloro-6-((cis-4-ethylcyclohexyl)oxy)naphthalen-2-yl)methyl)-9-azabicyclo[3.3.1]nonane-3-carboxylic acid] | ≤ 100 nM |
| O=C(O)C1CC2CCCC(C1)N2Cc1ccc2c(Cl)c(O[C@H]3CC[C@@H](C(F)(F)F)CC3)ccc2c1 (stereo partly drawn) [Example 111, 9-((5-Chloro-6-((cis-4-(trifluoromethyl)cyclohexyl)oxy)naphthalen-2-yl)methyl)-9-azabicyclo[3.3.1]nonane-3-carboxylic acid] | ≤ 250 nM |
| O=C(O)C12CCC(NCc3ccc4c(C(F)(F)F)c(OC5CCC(C(F)(F)F)CC5)ccc4c3)(CC1)CC2 (centres unmarked) [Example 144, 3-(4-{[5-trifluoromethyl-6-(4-trifluoromethyl-cyclohexyloxy)-naphthalen-2-ylmethyl]-amino}-bicyclo[2.2.2]oct-1-yl)-carboxylic acid] | ≤ 500 nM |
| O=C(O)C1CC2(C1)CN(Cc1ccc3c(C(F)(F)F)c(O[C@H]4CC[C@@H](C(F)(F)F)CC4)ccc3c1)C2 [Example 146, 2-((5-(trifluoromethyl)-6-((cis-4-(trifluoromethyl)cyclohexyl)oxy)naphthalen-2-yl)methyl)-2-azaspiro[3.3]heptane-6-carboxylic acid] | ≤ 250 nM |
| O=C(O)C1CC2CN(Cc3ccc4c(C(F)(F)F)c(OC5CCC(C(F)(F)F)CC5)ccc4c3)CC2C1 (centres unmarked) [Example 154, 3-(5-trifluoromethyl-6-(4-trifluoromethyl-cyclohexyloxy)-naphthalen-2-ylmethyl)-3-azabicyclo[3.3.0]octane-7-carboxylic acid] | ≤ 250 nM |
| O=C(O)C1CC2CCC(C1)N2C(=O)c1ccc2c(Cl)c(O[C@H]3CC[C@@H](C(F)(F)F)CC3)ccc2c1 (stereo partly drawn) [Example 186, 8-(5-chloro-6-((cis-4-(trifluoromethyl)cyclohexyl)oxy)-2-naphthoyl)-8-azabicyclo[3.2.1]octane-3-carboxylic acid] | ≤ 250 nM |
| C[C@H]1CC[C@@H](Oc2ccc3cc(CN4C5CCC4CC(C(=O)O)C5)ccc3c2C#N)CC1 (stereo partly drawn) [Example 188, 8-((5-cyano-6-((cis-4-methylcyclohexyl)oxy)naphthalen-2-yl)methyl)-8-azabicyclo[3.2.1]octane-3-carboxylic acid] | ≤ 500 nM |
| CC(c1ccc2c(C#N)c(O[C@H]3CC[C@@H](C)CC3)ccc2c1)N1C2CCC1CC(C(=O)O)C2 (stereo partly drawn) [Example 189, 8-(1-(5-cyano-6-((cis-4-methylcyclohexyl)oxy)naphthalen-2-yl)ethyl)-8-azabicyclo[3.2.1]octane-3-carboxylic acid] | ≤ 250 nM |
| O=C(O)C1CC2CCC(C1)N2C(=O)c1ccc2c(C(F)(F)F)c(N[C@H]3CC[C@@H](C(F)(F)F)CC3)ccc2c1 (stereo partly drawn) [Example 190, 8-(5-(trifluoromethyl)-6-((cis-4-(trifluoromethyl)cyclohexyl)amino)-2-naphthoyl)-8-azabicyclo[3.2.1]octane-3-carboxylic acid] | ≤ 100 nM |
| CC(C)(C)[C@H]1CC[C@H](Nc2ncc3cc(C(=O)N4C5CCCC4CC(C(=O)O)C5)ccc3n2)CC1 (stereo partly drawn) [Example 191, 9-(2-((trans-4-(tert-butyl)cyclohexyl)amino)quinazoline-6-carbonyl)-9-azabicyclo[3.3.1]nonane-3-carboxylic acid] | ≤ 100 nM |
| CC(C)(C)[C@H]1CC[C@H](Nc2cc3ccc(C(=O)N4C5CCC4CC(C(=O)O)C5)cc3cn2)CC1 (stereo partly drawn) [Example 194, 8-(3-((trans-4-(tert-butyl)cyclohexyl)amino)isoquinoline-7-carbonyl)-8-azabicyclo[3.2.1]octane-3-carboxylic acid] | ≤ 100 nM |
| O=C(O)C1CC2CCCC(C1)N2Cc1cc2ccc(O[C@H]3CC[C@@H](C(F)(F)F)CC3)c(C(F)(F)F)c2cn1 (stereo partly drawn) [Example 197, 9-((8-(trifluoromethyl)-7-((cis-4-(trifluoromethyl)cyclohexyl)oxy)isoquinolin-3-yl)methyl)-9-azabicyclo[3.3.1]nonane-3-carboxylic acid] | ≤ 500 nM |
| CC[C@H]1CC[C@@H](Oc2ccc3nc(NC4C5CCCC4CC(C(=O)O)C5)ccc3c2C(F)(F)F)CC1 (stereo partly drawn) [Example 198, 9-((6-((cis-4-ethylcyclohexyl)oxy)-5-(trifluoromethyl)quinolin-2-yl)amino)bicyclo[3.3.1]nonane-3-carboxylic acid] | ≤ 100 nM |
| CC[C@H]1CC[C@@H](Oc2ccc3cc(CN4C5CCCC4CC(C(=O)O)C5)ccc3c2C#N)CC1 (stereo partly drawn) [Example 199, 9-((5-cyano-6-((cis-4-ethylcyclohexyl)oxy)naphthalen-2-yl)methyl)-9-azabicyclo[3.3.1]nonane-3-carboxylic acid] | ≤ 100 nM |
| CC[C@H]1CC[C@@H](Oc2ccc3cc(CN4C5CCC4CC(C(=O)O)C5)ccc3c2C#N)CC1 (stereo partly drawn) [Example 200, 8-((5-cyano-6-((cis-4-ethylcyclohexyl)oxy)naphthalen-2-yl)methyl)-8-azabicyclo[3.2.1]octane-3-carboxylic acid] | ≤ 500 nM |
| O=C(O)C1CC2CCCC(C1)N2C(=O)c1ccc2c(Cl)c(O[C@H]3CC[C@@H](C(F)(F)F)CC3)ccc2c1 (stereo partly drawn) [Example 201, 9-(5-chloro-6-((cis-4-(trifluoromethyl)cyclohexyl)oxy)-2-naphthoyl)-9-azabicyclo[3.3.1]nonane-3-carboxylic acid] | ≤ 250 nM |
| CCC(c1ccc2c(Cl)c(O[C@H]3CC[C@@H](C(F)(F)F)CC3)ccc2c1)N1C2CCC1CC(C(=O)O)C2 (stereo partly drawn) [Example 202, 8-(1-(5-chloro-6-((cis-4-(trifluoromethyl)cyclohexyl)oxy)naphthalen-2-yl)propyl)-8-azabicyclo[3.2.1]octane-3-carboxylic acid] | ≤ 100 nM |
| C[C@H]1CC[C@@H](Oc2ccc3cc(C(=O)N4C5CCC4CC(C(=O)O)C5)ccc3c2Cl)CC1 (stereo partly drawn) [Example 203, 8-(5-chloro-6-((cis-4-methylcyclohexyl)oxy)-2-naphthoyl)-8-azabicyclo[3.2.1]octane-3-carboxylic acid] | ≤ 250 nM |
| CCC(c1ccc2c(C(F)(F)F)c(O[C@H]3CC[C@@H](C(C)(F)F)CC3)ccc2c1)N1C2CCC1CC(C(=O)O)C2 (stereo partly drawn) [Example 204, 8-(1-(6-((cis-4-(1,1-difluoroethyl)cyclohexyl)oxy)-5-(trifluoromethyl)naphthalen-2-yl)propyl)-8-azabicyclo[3.2.1]octane-3-carboxylic acid] | ≤ 100 nM |
| CC(c1ccc2c(Cl)c(O[C@H]3CC[C@@H](C)CC3)ccc2c1)N1C2CCC1CC(C(=O)O)C2 (stereo partly drawn) [Example 205, 8-(1-(5-chloro-6-((cis-4-methylcyclohexyl)oxy)naphthalen-2-yl)ethyl)-8-azabicyclo[3.2.1]octane-3-carboxylic acid] | ≤ 250 nM |
